Assay results from ChEMBL document CHEMBL1144059, “Interference of linoleic acid fraction in some receptor binding assays” (J Nat Prod, 1999).

What was measured:
Rattus norvegicus [1] = species on record: Rattus norvegicus; assay: Displacement of [3H]naloxone from rat opioid receptor at 1 mM
Bos taurus [2] = species on record: Bos taurus; assay: Displacement of [3H]nitrobenzylthiosine from nucleoside transport protein in calf lung membrane at 1 mM; type: cell membranes
Bos taurus [3] = species on record: Bos taurus; assay: Displacement of [3H]nitrobenzylthiosine from nucleoside transport protein in calf lung membrane at 10 uM; type: cell membranes
Rattus norvegicus [4] = species on record: Rattus norvegicus; assay: Displacement of [3H]naloxone from rat opioid receptor at 0.1 mM
Bos taurus [5] = species on record: Bos taurus; assay: Displacement of [3H]nitrobenzylthiosine from nucleoside transport protein in calf lung membrane at 0.1 mM; type: cell membranes
[6] = molecular target: T1, Adenosine receptor A1 (Rattus norvegicus) (UniProt P25099); assay: Displacement of [3H]DPCPX from rat brain adenosine A1 receptor at 56 uM assessed per mg of protein by saturation analysis
T1 sequence (whole entry): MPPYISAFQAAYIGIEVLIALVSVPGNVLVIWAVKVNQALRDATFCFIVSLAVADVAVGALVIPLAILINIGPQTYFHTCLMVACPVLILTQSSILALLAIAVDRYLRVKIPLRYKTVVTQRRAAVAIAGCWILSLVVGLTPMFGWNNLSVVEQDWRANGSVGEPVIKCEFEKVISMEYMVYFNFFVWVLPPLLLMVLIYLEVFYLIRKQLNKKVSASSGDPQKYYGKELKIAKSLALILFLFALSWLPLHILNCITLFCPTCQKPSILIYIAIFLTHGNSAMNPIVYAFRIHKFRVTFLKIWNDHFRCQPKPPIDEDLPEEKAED

[7] = molecular target: T1, Adenosine receptor A1 (Rattus norvegicus); assay: Displacement of [3H]DPCPX from rat adenosine A1 receptor at 1 mM by liquid scintillation counting
[8] = molecular target: T1, Adenosine receptor A1 (Rattus norvegicus); assay: Displacement of [3H]DPCPX from rat adenosine A1 receptor at 10 uM by liquid scintillation counting
[9] = molecular target: T1, Adenosine receptor A1 (Rattus norvegicus); assay: Displacement of [3H]DPCPX from rat adenosine A1 receptor at 0.1 mM by liquid scintillation counting
Adenosine receptor A1 = molecular target: T2, Adenosine receptor A1 (Rattus norvegicus, UniProt P25099); assay: Displacement of [3H]DPCPX from rat adenosine A1 receptor by liquid scintillation counting
T2 sequence (P25099 whole entry): T1 sequence (whole entry)

Rattus norvegicus [10] = species on record: Rattus norvegicus; assay: Displacement of [3H]naloxone from rat opioid receptor at 10 uM

CCCCC/C=C\C/C=C\CCCCCCCC(=O)O [LINOLEIC ACID] was tested, and the Activity (Rattus norvegicus [1]) was greater than 100%, the Activity (Bos taurus [2]) was less than 0% and the Activity (Bos taurus [3]) was 100%. It also gave an Activity (Rattus norvegicus [4]) of 42%, an Activity (Bos taurus [5]) of 100% and an Activity [6] of 143 fmol. It also gave an Activity [7] of 0%, an Activity [8] of 85% and an Activity [9] of 3%. The IC50 (Adenosine receptor A1) was 65 µM and the Activity (Rattus norvegicus [10]) was 100%.
